Legend:
[1] = biological target: T1, hMCT1-rCD147 fusion protein (Homo sapiens, UniProt P53985, D490E); assay: Competitive binding and uptake assay, inhibition of 14C-lactate uptake (FIG. 13); format: cell-based; design: rCD147 (rat CD147/basigin) fusion partner; expressed in transfected cells; conditions: cells expressing the fusion protein vs cells endogenously expressing hMCT1
T1 sequence (P53985 with tags, fused parts or gaps D490E): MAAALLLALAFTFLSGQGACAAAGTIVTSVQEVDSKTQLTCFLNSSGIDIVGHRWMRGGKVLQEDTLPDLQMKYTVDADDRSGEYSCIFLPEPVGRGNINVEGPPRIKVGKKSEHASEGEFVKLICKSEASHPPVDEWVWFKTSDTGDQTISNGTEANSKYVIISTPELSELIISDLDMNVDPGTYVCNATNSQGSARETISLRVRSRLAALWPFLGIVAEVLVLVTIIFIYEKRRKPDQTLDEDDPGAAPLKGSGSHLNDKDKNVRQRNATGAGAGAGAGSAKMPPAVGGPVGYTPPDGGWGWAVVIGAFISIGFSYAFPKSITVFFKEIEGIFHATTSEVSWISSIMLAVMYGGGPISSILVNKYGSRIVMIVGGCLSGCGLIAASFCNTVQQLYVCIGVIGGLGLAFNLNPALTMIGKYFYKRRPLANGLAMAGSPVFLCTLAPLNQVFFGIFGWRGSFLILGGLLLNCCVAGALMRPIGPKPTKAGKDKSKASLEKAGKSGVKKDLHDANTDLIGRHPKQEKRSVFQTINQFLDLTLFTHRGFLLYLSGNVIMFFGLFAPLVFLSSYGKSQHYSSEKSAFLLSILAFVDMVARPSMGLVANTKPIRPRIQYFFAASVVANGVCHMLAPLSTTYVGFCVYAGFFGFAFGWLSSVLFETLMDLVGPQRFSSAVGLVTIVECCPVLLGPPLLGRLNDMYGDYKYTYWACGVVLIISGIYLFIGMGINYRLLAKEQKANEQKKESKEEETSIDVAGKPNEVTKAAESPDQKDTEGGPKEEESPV
Procedure: To determine whether a compound interacts with the MCT1 transporter, a competition-binding assay was developed. This assay measures how different concentrations of a test compound block the uptake of a radiolabeled substrate such as lactate. The half-maximal inhibitory concentration (IC50) for inhibition of transport of a substrate by a test compound is an indication of the affinity of the test compound for the MCT1 transporter. Competition binding studies were performed as follows. HEK-PEAK cells were plated in 96-well plates at 100,000 cells/well and incubated at 37° C. for 24 hours. Radiolabeled ^14C-lactic acid (˜50,000 cpm/well) was added to each well in the presence and absence of various concentrations of unlabeled lactic acid in duplicate or triplicate. Competition experiments were performed in an MES-based saline buffer adjusted to pH 6.8. Plates were incubated at room temperature for 2 minutes. Excess radiolabeled substrate was removed and cells were washed three times with a 96-well plate washer with cold assay buffer. Scintillation fluid was added to each well, the plates were sealed and counted in a 96-well plate-based scintillation counter. Data were graphed and analyzed using non-linear regression analysis with Prism Software (GraphPad, Inc., San Diego, Calif.). Competition binding in HEK-PEAK cells is illustrated in FIG. 4B.
To confirm the pharmacology of the hMCT1-rCD147 fusion proteins was the same as that of the unmodified version of hMCT1, the hMCT1-rCD147-expressing cells lines were tested in a competitive binding and uptake assay. Eight different MCT1 substrates were tested for their ability to inhibit the uptake of ^14C-lactate into isolated cell lines inducibly or constitutively expressing hMCT1-rCD147 fusion protein and into cells endogenously expressing hMCT1.

[2] = biological target: T2, MCT1 (Homo sapiens, UniProt P53985); assay: Inducible uptake by LLCPK-TREx cell line containing pTREx-hMCT1 (FIG. 10); format: cell-based; design: expressed in transfected cells; host or cells: LLCPK-TREx cells; conditions: vs non-tet treated (un-induced) or parental LLCPK cells; pH 6.8, 2 minutes
T2 sequence (P53985 1-500): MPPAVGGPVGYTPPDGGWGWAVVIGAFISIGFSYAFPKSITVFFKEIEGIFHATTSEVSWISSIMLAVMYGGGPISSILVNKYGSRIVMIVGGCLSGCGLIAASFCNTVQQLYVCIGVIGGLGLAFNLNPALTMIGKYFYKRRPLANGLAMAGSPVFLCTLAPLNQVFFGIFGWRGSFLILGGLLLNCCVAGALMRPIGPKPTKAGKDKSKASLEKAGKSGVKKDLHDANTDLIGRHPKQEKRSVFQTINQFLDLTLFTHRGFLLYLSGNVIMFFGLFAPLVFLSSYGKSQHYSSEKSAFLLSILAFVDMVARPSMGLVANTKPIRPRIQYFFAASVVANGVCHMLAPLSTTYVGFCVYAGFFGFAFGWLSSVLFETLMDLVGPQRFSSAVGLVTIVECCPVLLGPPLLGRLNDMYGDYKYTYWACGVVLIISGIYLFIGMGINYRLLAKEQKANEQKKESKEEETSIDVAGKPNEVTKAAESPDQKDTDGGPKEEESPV
T2 sequence (P35613 140-385 partner limits assumed): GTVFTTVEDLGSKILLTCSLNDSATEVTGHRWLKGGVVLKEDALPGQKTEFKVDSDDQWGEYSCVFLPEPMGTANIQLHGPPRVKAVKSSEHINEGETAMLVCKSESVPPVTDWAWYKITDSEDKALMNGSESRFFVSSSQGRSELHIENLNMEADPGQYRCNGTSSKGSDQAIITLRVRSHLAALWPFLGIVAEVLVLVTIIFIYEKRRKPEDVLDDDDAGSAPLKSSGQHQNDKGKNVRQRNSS
Procedure: FIG. 10 depicts the results of an uptake experiment showing inducible uptake of (A) ^14C-lactate and (B) thiopheneglyoxylic acid by the LLCPK-TREx cell line containing plasmid pTREx-hMCT1. Uptake of ^14C-lactate was measured as follows: radiolabeled ^14C-lactic acid (˜50,000 cpm/well) was added to each well in triplicate. Experiments were performed in an MES-based saline buffer adjusted to pH 6.8. Plates were incubated at room temperature for 2 minutes. Excess radiolabeled substrate was removed and cells were washed three times with a 96-well plate washer with cold assay buffer. Scintillation fluid was added to each well, the plates were sealed and counted in a 96-well plate-based scintillation counter. Uptake of thiopheneglyoxylic acid was measured similarly to ^14C-lactate, except cells were washed and compound extracted with a 50% ethanol solution. Levels of extracted thiopheneglyoxylate were measured using mass spectroscopy as described above. Negative control values were determined by measuring the uptake into non-tet treated (un-induced) or parental LLCPK (constitutive) cells.

[3] = biological target: T2, MCT1; assay: 14C-lactate uptake in Xenopus oocytes injected with MCT1 cRNA (FIG. 2); format: cell-based; design: expressed in transfected cells; host or cells: Xenopus oocytes injected with MCT1 cRNA; conditions: oocytes expressing MCT1 vs oocytes expressing MCT4 or noninjected control oocytes
[4] = biological target: T2, MCT1; assay: 14C-lactate uptake assay in HEK-TREx cells transfected with tet-MCT1 inducible construct; format: cell-based; design: expressed in transfected cells; conditions: tet-induced vs non-induced
Procedure: Human MCT1 (hMCT1) is expressed at high levels in most mammalian cell lines. hMCT1 is a high capacity transporter, so low levels of hMCT1 expression may result in significant substrate transport. To control the level of hMCT expression, an inducible tet promoter-hMCT1 expression construct was prepared using the Gateway plasmid cloning system following manufacturers instructions (Invitrogen). The tet-MCT1 inducible construct was transfected into HEK-TREx cells using Fugene transfection following manufacturers instructions (Roche Biosciences). When the transfected cells were tested in an uptake assay, the amount of tetracycline-inducible MCT1 -mediated transport of ^14C-lactate was about 20% higher than the level of endogenous uptake seen in non-induced cells. The addition of an excess of unlabeled lactate competed with the uptake of ^14C-lactate.

[5] = biological target: T2, MCT1; conditions: cited from earlier work
[6] = biological target: PgP (Homo sapiens, UniProt P08183); assay: Cellular transwell monolayer efflux assay, MDCK cells transfected with TREx-PgP (FIG. 8)
PgP, sequence (P08183 whole entry): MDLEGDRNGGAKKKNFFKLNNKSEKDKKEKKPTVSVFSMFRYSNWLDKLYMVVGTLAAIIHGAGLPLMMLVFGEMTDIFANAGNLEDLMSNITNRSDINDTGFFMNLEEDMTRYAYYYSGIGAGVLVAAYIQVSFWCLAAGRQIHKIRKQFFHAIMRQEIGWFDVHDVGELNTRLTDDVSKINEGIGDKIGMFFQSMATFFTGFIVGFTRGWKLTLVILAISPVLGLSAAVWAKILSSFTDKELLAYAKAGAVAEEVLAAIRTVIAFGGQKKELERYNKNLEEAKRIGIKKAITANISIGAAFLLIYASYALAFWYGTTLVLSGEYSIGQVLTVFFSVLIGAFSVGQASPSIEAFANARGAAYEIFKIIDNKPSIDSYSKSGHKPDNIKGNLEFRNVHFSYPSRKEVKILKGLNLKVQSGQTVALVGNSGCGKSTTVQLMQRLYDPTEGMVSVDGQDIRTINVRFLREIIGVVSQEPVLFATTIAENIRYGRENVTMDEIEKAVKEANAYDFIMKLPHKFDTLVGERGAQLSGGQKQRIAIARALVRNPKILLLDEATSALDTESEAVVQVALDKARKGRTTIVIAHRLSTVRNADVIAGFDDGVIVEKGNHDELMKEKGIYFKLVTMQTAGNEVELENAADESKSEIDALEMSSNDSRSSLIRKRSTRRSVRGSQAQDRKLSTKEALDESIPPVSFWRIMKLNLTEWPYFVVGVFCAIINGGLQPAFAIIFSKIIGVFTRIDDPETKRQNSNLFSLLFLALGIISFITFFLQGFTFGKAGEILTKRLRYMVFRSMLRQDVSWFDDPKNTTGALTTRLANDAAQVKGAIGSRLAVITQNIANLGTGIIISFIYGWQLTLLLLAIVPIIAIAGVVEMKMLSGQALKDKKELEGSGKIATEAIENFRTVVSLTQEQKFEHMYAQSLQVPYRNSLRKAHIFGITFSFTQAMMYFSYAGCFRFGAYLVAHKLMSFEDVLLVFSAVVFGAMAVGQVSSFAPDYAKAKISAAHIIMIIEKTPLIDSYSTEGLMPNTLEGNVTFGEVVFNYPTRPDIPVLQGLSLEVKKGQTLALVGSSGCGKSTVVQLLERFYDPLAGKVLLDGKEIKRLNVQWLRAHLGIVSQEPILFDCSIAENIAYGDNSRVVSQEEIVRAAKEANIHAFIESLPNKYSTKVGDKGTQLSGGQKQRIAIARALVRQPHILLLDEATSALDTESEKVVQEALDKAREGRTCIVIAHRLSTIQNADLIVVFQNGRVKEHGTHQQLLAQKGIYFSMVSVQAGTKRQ
Procedure: A third type of efflux transporter assay is the cellular transwell monolayer efflux assay. […] The cells form a polarized monolayer. The transwell dishes have apical and basolateral chambers that are separated by the filter membrane on which the polarized monolayer is situated. Assays are performed by placing a test compound in either the apical or basolateral chamber, followed by sampling the opposite chamber after a predetermined period of time such as 60-120 minutes and measuring the amount of the test compound. The test compound can be measured by methods such as radiolabel detection or LC-MS-MS analysis. Assays are performed in the presence and absence of an efflux transporter inhibitor or competitor. Efflux transporter inhibitors or competitors increase apical to basolateral transport and decrease basolateral to apical transport of compounds that are efflux transporter substrates. Apparent permeability (Papp) of test compounds is measured. […] Test compounds that generate ratios between 1.5 and 2.0 require additional testing to determine if they are efflux transporter substrates.
MDCK cells transfected with the tetracycline-inducible TREx-PgP expression vector were seeded on polycarbonate filter membranes in transwell dishes and grown for 3-5 days, yielding a polarized monolayer with tight junctions between cells. […] The left set of bars depicts apical to basolateral transport, while the right set of bars depicts basolateral to apical transport.

[7] = biological target: T1, hMCT1-rCD147 fusion protein; assay: Uptake of tritiated GHB, cells expressing hMCT1-rCD147 fusion protein (FIG. 14); format: cell-based; design: rCD147 (rat CD147/basigin) fusion partner; expressed in transfected cells; host or cells: LLCPK-TREx cells (pTREx-hMCT1-rCD147 inducible, pMO-hMCT1-rCD147 constitutive); conditions: inducibly or constitutively expressing cells, compared with uninduced or control cells
Procedure: (§1) To determine whether […] (GHB) is a substrate for MCT1, an uptake assay was performed using tritiated […].

[8] = biological target: T2, MCT1; assay: Uptake of tritiated GHB, cells over expressing MCT1 protein (FIG. 14); format: cell-based; design: expressed in transfected cells; host or cells: LLCPK-TREx cells; conditions: compared with control cells
Procedure: as §1

[9] = 2.5 nM 3H-vinblastine, in the presence of 250 μM verapamil

Molecule	affinity for the MCT1-rCD147 fusion protein compared with hMCT1 alone [1]	Reported Affinity for MCT1 [5] [mM]	other results
O=C(O)Cc1ccccc1 [Compound 8, phenylacetic acid]	higher affinity		
^14C-lactic acid [^14C-lactate]			MCT1 substrate uptake upon induction with tetracycline [2]: significant increase; 14C-lactate uptake [3]: higher levels; tetracycline-inducible MCT1-mediated transport, higher than endogenous uptake in non-induced cells [4]: about 20%
O=C(O)C(=O)c1cccs1 [2-Thiophene glyoxylate]	higher affinity	3	MCT1 substrate uptake upon induction with tetracycline [2]: significant increase
CC[C@]1(O)C[C@@H]2CN(CCc3c([nH]c4ccccc34)[C@@](C(=O)OC)(c3cc4c(cc3OC)N(C)[C@H]3[C@@](O)(C(=O)OC)[C@H](OC(C)=O)[C@]5(CC)C=CCN6CC[C@]43[C@@H]65)C2)C1 [^3H-vinblastine]			Apical to basolateral transport [6, 9]: strongly increased; basolateral to apical transport [6, 9]: strongly decreased; efflux transporter substrate status ([6]; conclusion from transport with and without verapamil): substrate of PgP
O=C(CCc1ccc(O)cc1)c1c(O)cc(O)cc1O [Phloretin]		0.2	
CC(C)C[C@H](O)C(=O)O [Compound 2, L-alpha-hydroxy-isocaproic acid]	higher affinity		
O=C(O)c1ccccc1 [Compound 5, benzoic acid]	higher affinity		
O=C(O)c1ccccc1O [Salicylic Acid]		>5	
CC1(C)S[C@@H]2[C@H](NC(=O)C(C(=O)Oc3ccc4c(c3)CCC4)c3ccccc3)C(=O)N2[C@H]1C(=O)O (stereo partly drawn) [Carindicillin]		>5	
CCCC(=O)O [Butyric Acid]		8	
CCC(O)C(=O)O (stereo not drawn) [GHB, α-hydroxybutyrate]			uptake of labeled GHB [7]: increased uptake; uptake of labeled GHB [8]: increased uptake
CC(=O)C(=O)O [Pyruvic Acid]		1	
CC(O)C(=O)O (stereo not drawn) [Lactic Acid, lactic acid]	higher affinity	2	
O=C(O)c1cccnc1 [Nicotinic Acid, nicotinic acid]	higher affinity	4	
O=C(O)c1cc(/N=N/c2ccc(S(=O)(=O)Nc3ccccn3)cc2)ccc1O [Sulfasalazine]		0.15	

— patent publication US7452680B2, “MCT1 transporters expressed in blood brain barrier cells” (XenoPort, Inc., priority 2004, dated 2008)
